Data: patent US4298735A, “Folic acid derivatives” (Union Carbide Corporation, priority 1979, dated 1981)

Legend:
[1] = target: whole milk folate binder (Bos taurus, UniProt P02702); assay: Folate competitive protein binding (CPB) radioassay; conditions: for dose response curves generated using pteroyltyrosine [125I] as label: at high pH compared with lower pH
Experimental: The use of the Centria® analytical system, Union Carbide Corporation, in this example, is meant to be illustrative and other methods, both automated and manual, obvious to those skilled in the clinical diagnostic art are also within the scope of this invention.
Briefly, the Centria® system is a tri-modular instrument in which reagents are pipetted on to a multi-well transfer disk and mixed centrifugally with standards or patients' samples. After a suitable incubation period, the components are separated by a centrifugal elution of the bound and free fractions and the bound fractions counted three at a time.
Folic acid and N^5 -methyltetrahydrofolic acid standards in the range 0-20 nanograms/milliliter were prepared in 0.05 M sodium borate, pH 9.3 containing 0.1% human serum albumin. The whole milk binder was prepared according to the method of Rothenberg et al., ^(3) and dissolved in sodium borate, pH 9.3 containing 0.1% human serum albumin
(50 microliters, 20,000 cpm) plus 85 microliters of water with the limited number of binding sites contained in a 200 microliter solution of whole milk folate binder. The binding reactions may be shown as follows:
A gamma counter which counts three of the 36 positions at a time for one minute, so constructed that only the eluate bottom portion of the test tubes fits into the counter, was then used to count all samples. Sequential counting of the tubes thus required about 12 minutes. A small computer with printout capability then printed out the data after completion of the cycle.

[2] = Storage stability of the radioiodinated label; assay type: physicochemical; conditions: stored in a 50% aqueous propylene glycol solution, ten-week period
Excerpt: Radioiodination of biological compounds frequently leads to marked chemical instability and subsequent degradation of the radiolabel. This problem is often accentuated in the radiolabel when the materials to be radioiodinated are known to be sensitive to oxygen, light or extremes in pH, as is the case with folic acid and some derivatives.
The reaction mixture was applied to a 1×20 cm Sephadex G25, fine, (Pharmacia Fine Chemicals, Uppsala, Sweden) column hydrated with distilled water and equilibrated with 0.1 M potassium phosphate, pH 7.5. The column was eluted with 0.1 M potassium phosphate buffer and 3 ml fractions collected. The product "peak" fractions 32-34 were collected, diluted 1:1 with propylene glycol and stored below 0° C.

[3] = system: carboxypeptidase A; assay: Enzymatic hydrolysis of pteroyltyrosine followed by UV; assay type: biochemical; conditions: 0.025 M Tris-HCl, 2 mM zinc chloride, pH 7.3, two hours, ambient temperature
Experimental: Two milliliters of a solution of pteroyltrosine (0.75 mmoles/ml) in 0.025 M Tris-HCl containing 2 mM zinc chloride, pH 7.3 were diluted to 10 ml with distilled water. A portion of this solution (2 ml) was placed in a 1 cm cuvette and in another was placed 2 ml of distilled water. To each of the cuvettes was added 50 μl of a solution of 100 μl carboxypeptidase A suspension (Aldrich chemical, lot 060637) diluted with 0.9 ml of 10% lithium chloride.
The time course of the reaction was followed spectrophotometrically (uv) over a period of two hours at ambient temperature. An increase and shift in max from 280 to 277 nm and a marked decrease in absorption at 220 nm was observed. Two isosbestic points at 242 and 282 nm were visible.

whole milk folate binder, sequence (P02702 20-234): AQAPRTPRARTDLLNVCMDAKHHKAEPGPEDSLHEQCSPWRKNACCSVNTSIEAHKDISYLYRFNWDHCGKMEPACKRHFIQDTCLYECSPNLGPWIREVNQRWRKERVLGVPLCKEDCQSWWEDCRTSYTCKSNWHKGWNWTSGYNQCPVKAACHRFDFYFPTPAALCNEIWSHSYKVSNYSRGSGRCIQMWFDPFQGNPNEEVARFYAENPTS

CN1c2c(nc(N)[nH]c2=O)NCC1CNc1ccc(C(=O)N[C@@H](CCC(=O)O)C(=O)O)cc1 (some centres unmarked) [N^5 -methyl THF, N-5-methyltetrahydrofolic acid]
dose response curves generated using pteroyltyrosine [125I] as label [1]: more nearly coincident

Nc1nc2ncc(CNc3ccc(C(=O)N[C@@H](CCC(=O)O)C(=O)O)cc3)nc2c(=O)[nH]1 [folic acid]
dose response curves generated using pteroyltyrosine [125I] as label [1]: more nearly coincident

Nc1nc(O)c2nc(CNc3ccc(C(=O)N[C@@H](Cc4ccc(O)c([125I])c4)C(=O)O)cc3)cnc2n1 [pteroyltyrosine [^125 I]]
performance as radiolabel in CPB radioassay for folic acid ([1]; folic acid concentration range of 0-20 ng/ml): effective radiolabel | stability of radioiodinated product (assay performance on storage) [2]: no deterioration in assay performance

Nc1nc2ncc(CNc3ccc(C(=O)N[C@@H](Cc4ccc(O)cc4)C(=O)O)cc3)nc2c(=O)[nH]1 [pteroyltyrosine, Pteroyl-L-Tyrosine]
hydrolysis by carboxypeptidase A (UV time course, final spectrum) [3]: final spectrum was very similar to that of pteroic acid
